Source: ChEMBL document CHEMBL2046292, “The macrocycle of leinamycin imparts hydrolytic stability to the thiol-sensing 1,2-dithiolan-3-one 1-oxide unit of the natural product” (Bioorg Med Chem Lett, 2012)

Legend:
Assay type in all cases: physicochemical
[1] = Half life of the compound at 70 uM in MOPS aqueous buffer (250 mM, pH 7.0) containing MeCN (25% v/v) at 24 degC by HPLC analysis; conditions: pH 7, 70 µM
[2] = Half life of the compound at 70 uM in MOPS aqueous buffer (300 mM, pH 7.0) containing MeCN (25% v/v) at 24 degC in presence of 700 uM GSH by HPLC analysis; conditions: pH 7, 70 µM
[3] = Half life of the compound at 100 uM in HEPES buffer (250 mM, pH 7.0) at 24 degC containing no organic solvent
[4] = Half life of the compound in sodium phosphate buffer (10 mM, pH 7.0) at 37 degC containing methanol (10% v/v)

Compound	t1/2 [1] [h]	t1/2 [2] [h]	half-life at 100 µM [3] [h]	half-life [4] [h]
CC1(C)[S+]([O-])SC(=O)[C@@]1(C)O (stereo partly drawn)	0.883	0.0467	–	–
CC1(C)[S+]([O-])SC(=O)[C@]1(C)O (stereo partly drawn)	1.87	0.0633	–	–
C/C1=C\[C@@H](O)C(=O)/C=C/C=C\c2csc(n2)[C@@H](C)NC(=O)C[C@@]2(CC1)[S+]([O-])SC(=O)[C@]2(C)O (stereo partly drawn) [LEINAMYCIN]	27	0.173	16.1	8
